Patent publication US20040229934A1, “Method of reducing type 2 diabetes in high risk patients” (priority 2002, published 2004)

Tests used:
patients with diabetes = assay: HOPE trial: HbA1c levels among the patients with diabetes; format: in vivo; conditions: serial annual recordings, first 2 years
Experimental: The Study to Evaluate Carotid Ultrasound changes in patients treated with Ramipril and vitamin E (SECURE) in which fasting glucose increased more with placebo (15.8 mg/dL [0.41 mmols]) than with ramipril (9.6 mg/dL (0.25 mmols]; P=0.03). Among the patients with diabetes in the HOPE study, there was a significant reduction in HbA1c levels during serial annual recordings occurred during the first 2 years (absolute difference, 0.2%). In the UK Prospective Diabetes Study (UKPDS) and in the Captopril Prevention Project, patients randomized to receive ACE inhibitors had lower levels of HbA1c or less development of diabetes compared with those taking β-blockers or diuretics. However, it is not clear whether the differences in development of diabetes observed in these studies are due to a protective effect of ACE inhibitors or an adverse effect of β-blockers or diuretics.

[1] = system: patients older than 55 years without known diabetes but with vascular disease; assay: Heart Outcomes Prevention Evaluation (HOPE) trial: new diagnosis of diabetes; format: in vivo; conditions: for New Diabetes With Glycated Hemoglobin ≧110% ULN, RR (95% CI) / New Diabetes With Oral Agents or Insulin and Glycated Hemoglobin ≧110% ULN, RR (95% CI) / New Diabetes With Oral Agents or Insulin, RR (95% CI) / New Diabetes, RR (95% CI): vs placebo
Experimental: The design of the Heart Outcomes Prevention Evaluation (HOPE) trial has been described in detail in previous publications. Briefly, individuals who were 55 years or older with no evidence of left ventricular dysfunction or heart failure and who had evidence of vascular disease or who had diabetes and 1 other risk factor were eligible as long as they had no indication or contraindication to receiving an ACE-inhibitor. The study was conducted in […] in 19 countries from 1994 to 1999. All patients provided written informed consent. Of 10576 eligible patients who participated in a run-in period during which they received 2.5 mg ramipril once daily for 1 week followed by matching placebo for 10 to 14 days, 1035 (9.8%) were excluded from randomization (3.2% for side effects, 3.7% for lack of consent). […] This Example focuses primarily on the latter group of patients. Of these patients, 5720 were randomized to receive up to 10 mg of ramipril once per day or equivalent placebo. One hundred sixty-seven patients who were randomized to receive a low dose (2.5 mg/day) of ramipril as part of the Study to Evaluate Carotid Ultrasound changes with Ramipril and Vitamin E (SECURE). All randomized patients were also randomized to receive 400 IU of Vitamin E or placebo. Follow-up visits occurred at 1 month and 6 months after randomization and then every 6 months (mean follow-up of 4.5 years). At each visit, we documented whether the diagnosis of diabetes had been made since the last visit. The primary outcome of this analysis is a new diagnosis of diabetes recorded on the basis of self-report. […] Hemoglobin A1c (HbA1c) levels and medications used among those diagnosed as having diabetes were also recorded. The HbA1c, levels were determined locally. Values higher than 110% of the upper limit of normal for each laboratory were considered to be biochemical confirmation of diabetes. Survival curves utilizing the Kaplan Meier and log-rank procedures were used to describe and compare the results in the 2 treatment groups. Because of the factorial design, all analyses were stratified for randomization to vitamin E or placebo. Subgroup analyses were conducted using tests of interaction in the Cox regression model. Design, Setting and Participants. The randomized, controlled Heart Outcomes Prevention Evaluation trial of 5720 patients older than 55 years without known diabetes but with vascular disease who were followed up for a mean of 4.5 years. The study included 267 hospitals in 19 countries and was conducted between 1994 and 1999. Intervention. Patients were randomly assigned to receive ramipril, up to 10 mg/d (n=2837), or I Main Outcome Measure. Diagnosis of diabetes determined from self-report at follow-up visits every 6 months, compared between the 2 groups.

[2] = controlling for primary events and development of MA or ON
[3] = ramipril up to 10 mg/d, n=2837, mean follow-up 4.5 years

Compound: CCOC(=O)[C@H](CCc1ccccc1)N[C@@H](C)C(=O)N1[C@H](C(=O)O)C[C@@H]2CCC[C@@H]21 [ramipril]
- reduction in HbA1c levels, absolute difference (patients with diabetes): 0.2%
- RR, footnote | | (New Diabetes With Oral Agents or Insulin and Glycated Hemoglobin ≧110% ULN): new diabetes with patient taking glucose-lowering therapy [1, 2]: | |Controlling for primary events and development of MA or ON, new diabetes with patient taking glucose-lowering therapy had a 0.52 RR (95% CI, 35-0.78).
- RR, footnote § (New Diabetes With Oral Agents or Insulin): new diabetes with patient taking glucose-lowering therapy [1, 2]: §Controlling for primary events and development of MA or ON, new diabetes with patient taking glucose-lowering therapy had a 0.58 RR (95% CI, 42-0.79).
- RR, footnote † (New Diabetes): new diabetes with glycated hemoglobin 110% [1, 2]: †Controlling for primary events and development of MA or ON, new diabetes with glycated hemoglobin 110% had a 0.67 RR (95% CI, 0..52-0.86).
- RR, footnote ‡ (New Diabetes With Glycated Hemoglobin ≧110% ULN): new diabetes with patient taking glucose-lowering therapy [1, 2]: ‡Controlling for primary events and development of MA or ON, new diabetes with patient taking glucose-lowering therapy had a 0.58 RR (95% CI, 44-0.88).
- proportion diagnosed with diabetes receiving an oral glucose lowering agent or insulin ([1]; ramipril group): 2.1%
- proportion of patients diagnosed to have diabetes and a documented glycated hemoglobin of 110% or more above the upper limit of normal ([1]; ramipril group): 1.8%
- proportion with all criteria (diabetes, glycated hemoglobin, glucose-lowering therapy) ([1]; ramipril group): 1.3%
- relative risk [RR] of new diagnosis of diabetes ([1]; ramipril group vs placebo group): 0.66
- individuals who reported a new diagnosis of diabetes (number) [1, 3]: 102 and One hundred and two
- individuals who reported a new diagnosis of diabetes (proportion) [1, 3]: 3.6%
- RR for diabetes in the subgroup who never took diuretics or β-blockers during the study ([1]; ramipril vs placebo): 0.62
- RR, all criteria (both) ([1]; ramipril vs placebo): 0.51
- RR, diabetes with oral glucose lowering agent or insulin (initiation of glucose-lowering therapy) ([1]; ramipril vs placebo): 0.56
- RR, diagnosis of diabetes and glycated hemoglobin 110% or more ([1]; ramipril vs placebo): 0.60
- New Diabetes With Glycated Hemoglobin ≧110% ULN, number of patients ([1]; stratum: no new MA or ON): 42
- New Diabetes With Glycated Hemoglobin ≧110% ULN, proportion (in parentheses) ([1]; stratum: no new MA or ON): 1.7
- New Diabetes With Oral Agents or Insulin and Glycated Hemoglobin ≧110% ULN, number of patients ([1]; stratum: no new MA or ON): 30
- New Diabetes With Oral Agents or Insulin and Glycated Hemoglobin ≧110% ULN, proportion (in parentheses) ([1]; stratum: no new MA or ON): 1.2
- New Diabetes With Oral Agents or Insulin, number of patients ([1]; stratum: no new MA or ON): 45
- New Diabetes With Oral Agents or Insulin, proportion (in parentheses) ([1]; stratum: no new MA or ON): 1.8
- New Diabetes, number of patients ([1]; stratum: no new MA or ON): 82
- New Diabetes, proportion (in parentheses) ([1]; stratum: no new MA or ON): 9.3
- New Diabetes With Glycated Hemoglobin ≧110% ULN, RR (95% CI) ([1]; stratum: no new MA or ON): 0.66 (0.48-0.98)
- New Diabetes With Oral Agents or Insulin and Glycated Hemoglobin ≧110% ULN, RR (95% CI) ([1]; stratum: no new MA or ON): 0.80 (0.38-0.84)
- New Diabetes With Oral Agents or Insulin, RR (95% CI) ([1]; stratum: no new MA or ON): 0.56 (0.39-0.81)
- New Diabetes, RR (95% CI) ([1]; stratum: no new MA or ON): 0.87 (0.51-0.89)
- New Diabetes With Glycated Hemoglobin ≧110% ULN, number of patients ([1]; stratum: no primary event): 45
- New Diabetes With Glycated Hemoglobin ≧110% ULN, proportion (in parentheses) ([1]; stratum: no primary event): 1.8
- New Diabetes With Oral Agents or Insulin and Glycated Hemoglobin ≧110% ULN, number of patients ([1]; stratum: no primary event): 32
- New Diabetes With Oral Agents or Insulin and Glycated Hemoglobin ≧110% ULN, proportion (in parentheses) ([1]; stratum: no primary event): 1.9
- New Diabetes With Oral Agents or Insulin, number of patients ([1]; stratum: no primary event): 54
- New Diabetes With Oral Agents or Insulin, proportion (in parentheses) ([1]; stratum: no primary event): 2.2
- New Diabetes, number of patients ([1]; stratum: no primary event): 93
- New Diabetes, proportion (in parentheses) ([1]; stratum: no primary event): 3.8
- New Diabetes With Glycated Hemoglobin ≧110% ULN, RR (95% CI) ([1]; stratum: no primary event): 0.81 (0.42-0.89)
- New Diabetes With Oral Agents or Insulin and Glycated Hemoglobin ≧110% ULN, RR (95% CI) ([1]; stratum: no primary event): 0.61 (0.33-.78)
- New Diabetes With Oral Agents or Insulin, RR (95% CI) ([1]; stratum: no primary event): 0.58 (0.42-0.82)
- New Diabetes, RR (95% CI) ([1]; stratum: no primary event): 0.69 (0.53-0.91)
- New Diabetes With Glycated Hemoglobin ≧110% ULN, number of patients ([1]; stratum: with new MA or ON): 10
- New Diabetes With Glycated Hemoglobin ≧110% ULN, proportion (in parentheses) ([1]; stratum: with new MA or ON): 2.8
- New Diabetes With Oral Agents or Insulin and Glycated Hemoglobin ≧110% ULN, number of patients ([1]; stratum: with new MA or ON): 6
- New Diabetes With Oral Agents or Insulin and Glycated Hemoglobin ≧110% ULN, proportion (in parentheses) ([1]; stratum: with new MA or ON): 1.7
- New Diabetes With Oral Agents or Insulin, number of patients ([1]; stratum: with new MA or ON): 14
- New Diabetes With Oral Agents or Insulin, proportion (in parentheses) ([1]; stratum: with new MA or ON): 3.9
- New Diabetes, number of patients ([1]; stratum: with new MA or ON): 20
- New Diabetes, proportion (in parentheses) ([1]; stratum: with new MA or ON): 5.6
- New Diabetes With Glycated Hemoglobin ≧110% ULN, RR (95% CI) ([1]; stratum: with new MA or ON): 0.47 (0.23-0.98)
- New Diabetes With Oral Agents or Insulin and Glycated Hemoglobin ≧110% ULN, RR (95% CI) ([1]; stratum: with new MA or ON): 0.32 (0.13-0.79)
- New Diabetes With Oral Agents or Insulin, RR (95% CI) ([1]; stratum: with new MA or ON): 0.61 (0.32-1.16)
- New Diabetes, RR (95% CI) ([1]; stratum: with new MA or ON): 0.85 (0.38-1.12)
- New Diabetes With Glycated Hemoglobin ≧110% ULN, number of patients ([1]; stratum: with primary event): 7
- New Diabetes With Glycated Hemoglobin ≧110% ULN, proportion (in parentheses) ([1]; stratum: with primary event): 1.9
- New Diabetes With Oral Agents or Insulin and Glycated Hemoglobin ≧110% ULN, number of patients ([1]; stratum: with primary event): 4
- New Diabetes With Oral Agents or Insulin and Glycated Hemoglobin ≧110% ULN, proportion (in parentheses) ([1]; stratum: with primary event): 1.1
- New Diabetes With Oral Agents or Insulin, number of patients ([1]; stratum: with primary event): 5
- New Diabetes With Oral Agents or Insulin, proportion (in parentheses) ([1]; stratum: with primary event): 1.3
- New Diabetes, number of patients ([1]; stratum: with primary event): 9
- New Diabetes, proportion (in parentheses) ([1]; stratum: with primary event): 2.4
- New Diabetes With Glycated Hemoglobin ≧110% ULN, RR (95% CI) ([1]; stratum: with primary event): 0.59 (0.24-1.43)
- New Diabetes With Oral Agents or Insulin and Glycated Hemoglobin ≧110% ULN, RR (95% CI) ([1]; stratum: with primary event): 0.64 (0.17-1.72)
- New Diabetes With Oral Agents or Insulin, RR (95% CI) ([1]; stratum: with primary event): 0.42 (0.15-1.14)
- New Diabetes, RR (95% CI) ([1]; stratum: with primary event): 0.48 (0.21-0.98)
- results among subgroups with different risk factors for developing diabetes (FIG. 2) ([1]; waist to hip ratio, BMI, hypertension history, β-blockers or diuretics at randomization): consistent

Compound: Vitamin E
- effect on diabetes compared with placebo ([1]; 400 IU of Vitamin E, factorial design): did not differ
